What was measured:
Type in all cases: cell-based
NRK cells = experiment: DNA synthesis in IGF-1-stimulated NRK cells on vitronectin, collagen or laminin; settings: data not shown
[1] = tested on: human foreskin fibroblasts; experiment: DNA synthesis ([3H]-thymidine incorporation) in PDGF-stimulated human foreskin fibroblasts on vitronectin or collagen; settings: 40 ng/ml PDGF-BB, 20 μg/ml coating, FIG. 5 column 3 vs 4
Protocol: (§1) Human foreskin fibroblasts (Coriell) were plated at 1×10^5 cells/well on 24-well plates that had been coated for 12 hours either with 20 μg/ml of vitronectin of 20 μg/ml of type I collagen. Cells were incubated for 36 hours in Dulbecco's modified Eagle's medium containing 0.1% bovine serum albumin followed by addition of buffer or 40 ng/ml PDGF-BB (Boehringer Mannheim). After 15 hours, the cells were pulse-labeled with 1 μCi/ml [^3 H]-thymidine (specific activity 6.7 Ci/mmol, DuPont NEN) for 3 hours and thymidine incorporation into DNA was determined by liquid scintillation counting.
Cells were serum-starved and treated with buffer only (samples 1 and 2) or with PDGF (samples 3 and 4). Data points are the average of duplicate samples.

Rat-1 cells = experiment: DNA synthesis ([3H]-thymidine incorporation) in EGF-stimulated Rat-1 cells on vitronectin or collagen; settings: 40 ng/ml EGF, 20 μg/ml coating, FIG. 6
Protocol: as §1, with “Rat-1 cells were” for “Human foreskin fibroblasts (Coriell) were”, “vitronectin or” for “vitronectin of”, “ng/ml EGF” for “ng/ml PDGF-BB”
After being serum-starved, the cells were treated with buffer only (samples 1 and 2) or with EGF (samples 3 and 4). Data points are the average of triplicate samples.

[2] = tested on: FG-C human pancreatic carcinoma cells (αv β3 integrin negative); experiment: DNA synthesis ([3H]-thymidine incorporation into DNA) in insulin-stimulated FG-C cells on vitronectin or type I collagen; settings: FG-C cells lacking αv β3; 100 mM insulin; FIG. 4 columns 3, 4, 7, 8, 11, 12
Protocol: (§2) FG-B (columns 1, 2, 5, 6, 9, and 10) and FG-C cells (columns 3, 4, 7, 8, 11, and 12) were plated at 1×10^5 cells/well on 24-well plates that had been coated either with vitronectin (dark column) or type I collagen (open column) . Plates were coated with 10 μg/ml of either vitronectin or type I collagen for 12 hours followed by blocking with 0.5% bovine serum albumin For 2 hours. Cells were incubated for 36 hours in DMEM containing 10% FCS (columns 1 to 4), or in DMEM containing 0.1% BSA followed by addition of buffer (columns 5 to 8) or 100 mM insulin (columns 9 to 12). FCS is used as a control because it provides maximal stimulation owing to the presence of high levels of growth factors and adhesion proteins.
(§3) After 15 hours, the cells were pulse-labeled with 1 μCi/ml [^3 H]-thymidine (specific activity 6.7 Ci/mmol, DuPont NEN) for 3 hours and thymidine incorporation into DNA was determined by trichloroacetic acid precipitation and liquid scintillation counting. Error bars indicate the standard error of triplicate determinations.

[3] = tested on: αv β3 integrin-IRS-1 association in HIRcB cells; experiment: Association of IRS-1 with the vitronectin receptor after insulin stimulation (immunoprecipitation, immunoblot, densitometry); settings: insulin-stimulated HIRcB cells; 100 nM insulin; compared with IRS-1 from total cell lysate
Protocol: HIRcB cells were grown to 80% confluency in Dulbeccos's modified Eagle's medium (DMEM) containing 10% fetal calf serum (FCS) and 500 nM methotrexate, incubated in DMEM+0.1% BSA for 36 hours, and either left quiescent, or stimulated with 100 nM insulin (Sigma) for 3 minutes. Cell monolayers were rinsed with PBS, frozen with liquid nitrogen and lysed in NP-40 lysis buffer (20 mM Tris-HCl (pH 8.0), 1% NP-40, 10% glycerol, 137 mM NaCl, 1 mM CaCl2, 1 mM MgCl2, 1 mM sodium orthovanadate, 50 mM sodium fluoride, 1 mM phenylmethylsulfonylfluoride, 0.1 U/ml aprotinin, 10 μg/ml pepstatin A). HIRcB cells were immunoprecipitated with anti-αv β3 237 according to Suzuki et al., PNAS USA 83:8614 (1986), as shown in lanes 1 and 3, 237 preimmune serum in lane 2, anti-αv β3 1343 in lane 4, anti-αIIb β3 in lane 5, anti-α5 β1 488 in lane 6 (made according to Argraves et al., J. Cell Biol. 105:1183 (1987)) and an unrelated rabbit antiserum (lane 7). Anti-αv β3 1343 was obtained from a person (Telios Pharmaceuticals, Inc.) and anti-αIIb β3 from Dr. Elisabetta Dejana (Mario Negri Institute, Milan, Italy). Three anti-α5 β1 antibodies and six unrelated polyclonal antibodies tested gave results similar to those shown in lanes 6 and 7. […] In lane 8, anti-αv β3 237 immunocomplexes from insulin-treated cells were dissociated and reprecipitated with the same antibody as follows. […]

[4] = tested on: FG-B human pancreatic carcinoma cells (αv β3 integrin positive); experiment: DNA synthesis ([3H]-thymidine incorporation into DNA) in insulin-stimulated FG-B cells on vitronectin or type I collagen; settings: 100 mM insulin, plates coated with 10 μg/ml vitronectin or type I collagen, FIG. 4 columns 9, 10
Protocol: as §2, §3

For insulin-like growth factor [IGF-1], the “DNA synthesis in response to IGF-1, on vitronectin relative to collagen or laminin” value (NRK cells) was “about 2.3 fold”.
platelet derived growth factor [PDGF] was tested, and the “DNA synthesis in response to PDGF, on vitronectin relative to collagen” value [1] was “about 2.3 fold”.
For “Epidermal growth factor (NSDSECPLSHDGYCLHDGVCMYIEALDKYACNCVVGYIGERCQYRDLKWWELR; Epidermal growth factor; UniProt P01133 971-1023, looked up) [EGF, EGF from Boehringer Mannheim]”, the “Response (DNA synthesis) to EGF on vitronectin versus collagen” value (Rat-1 cells) was “same response”.
For insulin, the “Difference in DNA synthesis response on vitronectin and collagen” value [2] was “no difference”, the “Share of IRS-1 complexed with the vitronectin receptor” value [3] was “Five to eight” and the “DNA synthesis in response to insulin, on vitronectin relative to collagen” value [4] was “about 2.5 fold”.
